Assay results reported in publication PMC3723878 (PLoS ONE, 2013).
Positions count from the first letter of the chain named.

What was measured:
Assay in all cases: Saturation binding of ^125I-HEAT
[1] = biological target: T1, human α1A-AR F193A variant (Homo sapiens, UniProt P35348, F193A)
T1 construct: expressed in transfected cells; host or cells: COS-7, transient (calcium phosphate)
T1 sequence (P35348 1-466 F193A): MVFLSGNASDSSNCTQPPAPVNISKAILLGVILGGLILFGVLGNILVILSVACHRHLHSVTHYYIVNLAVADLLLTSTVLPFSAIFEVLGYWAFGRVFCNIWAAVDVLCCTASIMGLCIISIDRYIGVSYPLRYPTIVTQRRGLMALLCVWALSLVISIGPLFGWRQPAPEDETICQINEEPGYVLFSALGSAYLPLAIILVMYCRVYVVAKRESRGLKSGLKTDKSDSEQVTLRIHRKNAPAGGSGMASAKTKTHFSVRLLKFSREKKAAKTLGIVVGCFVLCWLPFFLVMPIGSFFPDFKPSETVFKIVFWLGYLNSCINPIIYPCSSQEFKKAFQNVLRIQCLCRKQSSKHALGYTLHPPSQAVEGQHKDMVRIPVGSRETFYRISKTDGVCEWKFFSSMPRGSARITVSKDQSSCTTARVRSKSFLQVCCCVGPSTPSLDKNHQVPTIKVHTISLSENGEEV

[2] = biological target: T2, human α1A-AR F281A variant (Homo sapiens, UniProt P35348, F281A)
T2 construct: expressed in transfected cells; host or cells: COS-7, transient (calcium phosphate)
T2 sequence (P35348 1-466 F281A): T1 sequence (P35348 1-466 F193A) with A193F, F281A

[3] = biological target: T3, human α1A-AR WT (Homo sapiens, UniProt P35348)
T3 construct: expressed in transfected cells; host or cells: COS-7, transient (calcium phosphate)
T3 sequence (P35348 1-466): T1 sequence (P35348 1-466 F193A) with A193F

Q: `O=C1c2ccccc2CCC1CNCCc1ccc(O)c([125I])c1` (centres unmarked) [125I-HEAT] was tested. Which “^125I-HEAT Ratio (loss of affinity relative to WT)” value [1] did it give?
A: Its value is 2.8.

Q: And the “^125I-HEAT Ratio (loss of affinity relative to WT)” value ([2]; F281A)?
A: The value was 3.9.

Q: What about the “^125I-HEAT pKd” value ([2]; F281A (6.44), saturation binding, n = 3–6) of the same molecule?
A: Its value is 9.46±0.09.

Q: And the “^125I-HEAT Ratio (affinity relative to WT)” value [3]?
A: The value was 1.

Q: What about the “^125I-HEAT pKd” value ([3]; saturation binding, n = 3–6) of the same molecule?
A: The value was 10.05±0.14.
